Assay results reported in ChEMBL document CHEMBL6078695, “Design, synthesis, and biological evaluations of 5-aryl-pyrazole-3-carboxamide derivatives as selective CB2 receptor agonists for the treatment of colitis” (Eur J Med Chem, 2025).
pEC50, pIC50: −log10 of the molar value. Calls of active or inactive are those of the source. The calls are words filed in the database; no cut-off is given here.

Experiments:
Format in all cases: functional, cell-based
Cannabinoid receptor 1 [1] = molecular target: T1, Cannabinoid receptor 1 (Homo sapiens, UniProt P21554); assay: Antagonist activity at human CB1 receptor expressed in CHO-K1 cells co-transfected with human Galpha16 assessed as intracellular calcium flux
Cannabinoid receptor 1 [2] = molecular target: T1, Cannabinoid receptor 1; assay: Agonist activity at human CB1 receptor expressed in CHO-K1 cells co-transfected with human Galpha16 assessed as intracellular calcium flux
Cannabinoid receptor 2 [3] = molecular target: T2, Cannabinoid receptor 2 (Homo sapiens, UniProt P34972); assay: Partial agonist activity at human CB2 receptor expressed in CHO-K1 cells co-transfected with human Galpha16 assessed as intracellular calcium flux at 10 uM; details: filed as partial agonist
Cannabinoid receptor 2 [4] = molecular target: T2, Cannabinoid receptor 2; assay: Agonist activity at human CB2 receptor expressed in CHO-K1 cells co-transfected with human Galpha16 assessed as intracellular calcium flux
Cannabinoid receptor 2 [5] = molecular target: T2, Cannabinoid receptor 2; assay: Agonist activity at human CB2 receptor expressed in CHO-K1 cells co-transfected with human Galpha16 assessed as intracellular calcium flux at 10 uM relative to control; details: filed as agonist
Cannabinoid receptor 2 [6] = molecular target: T2, Cannabinoid receptor 2; assay: Antagonist activity at human CB2 receptor expressed in CHO-K1 cells co-transfected with human Galpha16 assessed as intracellular calcium flux
Cannabinoid receptor 1 [7] = molecular target: T1, Cannabinoid receptor 1; assay: Agonist activity at human CB1 receptor expressed in CHO-K1 cells co-transfected with human Galpha16 assessed as intracellular calcium flux at 10 uM relative to control
Cannabinoid receptor 2 [8] = molecular target: T2, Cannabinoid receptor 2; assay: Agonist activity at human CB2 receptor expressed in CHO-K1 cells co-transfected with human Galpha16 assessed as intracellular calcium flux at 10 uM; details: filed as agonist
Cannabinoid receptor 2 [9] = molecular target: T2, Cannabinoid receptor 2; assay: Agonist activity at human CB2 receptor expressed in HEK293 cells assessed as forskolin-stimulated cAMP accumulation preincubated with compound for 10 mins followed by forskolin induction and measured after 2 hrs by HTRF analysis
Cannabinoid receptor 2 [10] = molecular target: T2, Cannabinoid receptor 2; assay: Antagonist activity at human CB2 receptor expressed in CHO cells co-transfected with human Galpha16 assessed as increase in intracellular calcium mobilization at 10 uM preincubated with compound for 10 mins followed by HBSS buffer wash and re-treated with compound at same concentration; details: filed as antagonist
Cannabinoid receptor 2 [11] = molecular target: T2, Cannabinoid receptor 2; assay: Antagonist activity at human CB2 receptor expressed in CHO cells co-transfected with human Galpha16 assessed as receptor desensitization by measuring reduction in calcium response at 10 uM; details: filed as antagonist
Cannabinoid receptor 2 [12] = molecular target: T2, Cannabinoid receptor 2; assay: Agonist activity at human CB2 receptor expressed in CHO cells assessed as reduction in ERK1/2 phosphorylation at 10 uM by Western blot analysis
Cannabinoid receptor 2 [13] = molecular target: T2, Cannabinoid receptor 2; assay: Antagonist activity at human CB2 receptor expressed in CHO cells co-transfected with human Galpha16 assessed as increase in intracellular calcium mobilization at 10 uM; details: filed as antagonist
Cannabinoid receptor 1 [14] = molecular target: T1, Cannabinoid receptor 1; assay: Partial agonist activity at human CB1 receptor expressed in CHO-K1 cells co-transfected with human Galpha16 assessed as intracellular calcium flux
Cannabinoid receptor 1 [15] = molecular target: T1, Cannabinoid receptor 1; assay: Partial agonist activity at human CB1 receptor expressed in CHO-K1 cells co-transfected with human Galpha16 assessed as intracellular calcium flux at 10 uM relative to control; details: filed as partial agonist
Cannabinoid receptor 2 [16] = molecular target: T2, Cannabinoid receptor 2; assay: Partial agonist activity at human CB2 receptor expressed in CHO-K1 cells co-transfected with human Galpha16 assessed as intracellular calcium flux at 10 uM relative to control; details: filed as partial agonist
Cannabinoid receptor 2 [17] = molecular target: T2, Cannabinoid receptor 2; assay: Partial agonist activity at human CB2 receptor expressed in CHO-K1 cells co-transfected with human Galpha16 assessed as intracellular calcium flux

T1 sequence (P21554 whole entry): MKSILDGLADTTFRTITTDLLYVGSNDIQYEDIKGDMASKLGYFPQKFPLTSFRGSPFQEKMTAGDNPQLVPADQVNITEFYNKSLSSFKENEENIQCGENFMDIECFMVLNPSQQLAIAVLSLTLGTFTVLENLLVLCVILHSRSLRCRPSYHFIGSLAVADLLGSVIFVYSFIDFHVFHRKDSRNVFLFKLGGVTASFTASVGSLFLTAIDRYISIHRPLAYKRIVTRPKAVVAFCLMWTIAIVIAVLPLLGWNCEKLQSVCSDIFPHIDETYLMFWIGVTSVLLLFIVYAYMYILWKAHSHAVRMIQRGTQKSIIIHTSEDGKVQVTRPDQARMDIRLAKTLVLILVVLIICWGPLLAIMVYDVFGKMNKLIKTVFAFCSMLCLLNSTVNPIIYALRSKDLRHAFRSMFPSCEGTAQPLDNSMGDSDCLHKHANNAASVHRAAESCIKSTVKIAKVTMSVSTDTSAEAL
T2 sequence (P34972 whole entry): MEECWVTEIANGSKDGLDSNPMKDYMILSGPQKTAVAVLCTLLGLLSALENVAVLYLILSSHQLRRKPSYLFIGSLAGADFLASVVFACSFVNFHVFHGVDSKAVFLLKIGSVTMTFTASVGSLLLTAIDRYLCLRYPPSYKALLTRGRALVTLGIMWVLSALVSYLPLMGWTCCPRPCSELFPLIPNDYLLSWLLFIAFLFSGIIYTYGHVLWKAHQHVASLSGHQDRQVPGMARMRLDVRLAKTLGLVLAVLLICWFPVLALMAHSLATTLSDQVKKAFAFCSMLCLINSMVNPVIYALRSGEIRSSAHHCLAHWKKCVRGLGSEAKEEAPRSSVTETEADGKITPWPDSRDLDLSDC

Row | SMILES | pIC50 (Cannabinoid receptor 1 [1]) | pEC50 (Cannabinoid receptor 1 [2]) | pEC50 (Cannabinoid receptor 2 [4]) | Emax (Cannabinoid receptor 2 [5]) [%] | pIC50 (Cannabinoid receptor 2 [6]) | further results
1 | Cc1ccc(-n2nc(C(=O)NC(C)(C)CO)cc2-c2cccs2)cc1 | < 4.00 | < 4.00 | 5.98 | 45 | < 4.00 | Activity (Cannabinoid receptor 2 [3]): Weak_effect
2 | CC(C)(CO)NC(=O)c1cc(-c2cccs2)n(-c2ccc(Cl)cc2)n1 | < 4.00 | < 4.00 | 6.10 | 82 | < 4.00 | Activity (Cannabinoid receptor 2 [3]): Weak_effect
3 | COc1ccc(C(=O)c2c(C)n(CCN3CCOCC3)c3cc(I)ccc23)cc1 |  |  | < 4.00 |  | 6.75 | 
4 | CCCCCn1nc(C(=O)NC(C)(C)CO)cc1-c1cccn1C | < 4.00 | < 4.00 | 7.32 | 90 |  | 
5 | CCCCCn1nc(C(=O)NC(C)(C)CO)cc1-c1ccsc1 | < 4.00 | < 4.00 | 6.85 | 50 | < 4.00 | 
6 | CCCCCn1nc(C(=O)NC(C)(C)CO)cc1-c1cccn1CC | < 4.00 | 7.43 | 8.11 | 76 | < 4.00 | Emax (Cannabinoid receptor 1 [7]; filed as agonist): 90%
7 | CCCCCn1nc(C(=O)NC(C)(C)CO)cc1-c1sccc1C | < 4.00 | 6.37 | 6.56 | 85 | < 4.00 | Emax (Cannabinoid receptor 1 [7]): 30%
8 | CCCCCn1nc(C(=O)NC(C)(C)CO)cc1-c1ccc(Cl)s1 | < 4.00 | < 4.00 | < 4.00 |  | 7.49 | 
9 | CC(C)(CO)NC(=O)c1cc(-c2cccs2)n(CC2CC2)n1 | < 4.00 | < 4.00 | 6.76 | 55 | < 4.00 | Activity (Cannabinoid receptor 2 [8]): Active
10 | CCCCCn1nc(-c2cccs2)cc1C(=O)NC(C)(C)CO | < 4.00 | < 4.00 | < 4.00 |  |  | 
11 | CCCCCn1nc(C(=O)NC(C)(C)CO)cc1-c1cc(Cl)cs1 | < 4.00 | < 4.00 | < 4.00 |  | 7.46 | 
12 | CCCCCn1nc(C(=O)NC(C)(C)CO)cc1-c1nccn1C | < 4.00 | < 4.00 | < 4.00 |  | < 4.00 | 
13 | CCCCCCC(C)(C)c1ccc([C@@H]2C[C@H](C)CC[C@H]2CCCO)c(O)c1 |  |  | 7.46 | 100 | < 4.00 | pEC50 (Cannabinoid receptor 2 [9]): 7.79; Emax (Cannabinoid receptor 1 [7]; filed as agonist): 100%; Activity (Cannabinoid receptor 2 [10]): Active; Activity (Cannabinoid receptor 2 [11]): Active; Activity (Cannabinoid receptor 2 [12]): inactive; Activity (Cannabinoid receptor 2 [13]): Active
14 | CCCCCn1nc(C(=O)NC(C)(C)CO)cc1-c1ccco1 | < 4.00 |  |  |  |  | pEC50 (Cannabinoid receptor 1 [14]): 6.02; Emax (Cannabinoid receptor 1 [15]): 80%; Emax (Cannabinoid receptor 2 [16]): 50%; pEC50 (Cannabinoid receptor 2 [17]): 7.25
15 | CCCCCn1nc(C(=O)NC(C)(C)CO)cc1-c1ccnn1C | < 4.00 | < 4.00 | < 4.00 |  | < 4.00 | 
